Data: patent US20140182011A1, “Methods Using Acyl-Coenzyme A-Binding Proteins to Enchance Drought Tolerance in Genetically Modified Plants” (The University of Hong Kong, priority 2011, published 2014)

Key:
[1] = tested on: ACBP2; assay: qRT-PCR of ACBP2 expression after ABA treatment; format: in vivo, Arabidopsis; details: 12-day-old seedlings, ABA (100 µM), continuous white light
Procedure: TRIzol® reagent was also used for RNA extraction of 12-day-old Arabidopsis seedlings subject to treatment by 100 μM ABA or drought for the various times (0, 1, 3, 6 and 24 h) under continuous white light. First-strand was synthesized using the Superscript First-Strand Synthesis System (Invitrogen). QRT-PCR was performed using StepOne Plus (Applied Biosystems) and FastStart Universal SYBR Green Master (Roche). Transcript changes were analyzed according to Schmittgen and Livak (Nat. Protoc. 3:1101-1108 (2008) from three independent experiments.
To determine the effect of ABA treatment on ACBP2 expression, the expression of ACBP2 was examined by Real-time quantitative PCR (qRT-PCR) using primers ML1122 and ML1123 (SEQ ID NOs: 1 and 2) in 12-day-old seedlings before and after ABA treatment under continuous white light. qRT-PCR was performed using StepOne Plus (Applied Biosystems) and FastStart Universal SYBR Green Master (Roche). Transcript changes were analyzed according to Schmittgen and Livak (Nat. Protoc. 3: 1101-1108 (2008) from three independent experiments.

[2] = tested on: Arabidopsis seeds; assay: Seed germination with ABA treatment; format: in vivo
Procedure: To test ABA sensitivity at germination, over 200 seeds per experiment were sown on MS medium in the presence or absence of […] (Sigma-Aldrich, St Louis, Mo., USA). After 2 d at 4° C., seeds were germinated and grown under 16-hour-light (23° C.)/8-hour-dark (21° C.) cycles. Germination was examined daily with a microscope (Leica MZ6; Leica, Solms, Germany), and seedlings were photographed after 7 d. For post-germination growth assays, seeds were germinated on MS medium for 4 d, followed by transfer to MS medium or MS medium supplemented with […] for 7 d before photography and root measurements.

[3] = tested on: ACBP2pro:GUS; assay: Histochemical GUS assay during germination; format: in vivo, Arabidopsis; details: ABA treatment
Procedure: Histochemical GUS assays were carried out using 5 bromo-4-chloro-3-indolyl-b-D-glucuronide (X-Glue) according to Liu et al., Plant Cell, 16: 5-20 (2004). Plant samples were immersed and vacuum filtrated in the GUS staining solution for 30 min (100 mM sodium phosphate buffer, pH 7.0, 0.1% Triton X-100, 2 mM potassium ferricyanide, 2 mM potassium ferrocyanide, 1 mg/mL 5 bromo-4-chloro-3-indolyl-β-D-glucuronide), incubated and observed over a period ranging from 3 to 16 h at 37° C. Subsequently, samples were cleared in 70% ethanol and photographed.

CC1=CC(=O)CC(C)(C)[C@@]1(O)/C=C/C(C)=C\C(=O)O [ABA, Abscisic acid]
ACBP2 expression (qRT-PCR) [1]: significant induction
seed germination [2]: suppressed germination
GUS expression as germination progressed [3]: retained GUS expression
